“Also recorded” adds a separate entry of the source. Residues, ends and D or L forms follow the SMILES beside them.
T1: S100A1 (recombinant human 15N-labeled, Ca2+-loaded) (Homo sapiens, UniProt P23297)
T1 construct: made in house
T1 sequence (P23297 1-94): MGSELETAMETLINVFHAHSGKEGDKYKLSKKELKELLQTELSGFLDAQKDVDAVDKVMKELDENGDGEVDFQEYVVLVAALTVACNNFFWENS


Legend:
[1] = target: T1, S100A1 (recombinant human 15N-labeled, Ca2+-loaded); assay: ITC of S100A1 association with RyR1 CaMBD peptides; format: binding; details: for N (sites) / Kd / ΔG / ΔH: 37°C, two-site fit, mean ± SD, n = 3; for difference in affinity between the tight and weak peptide-binding site: ratio of KD at the two sites on S100A1 dimer; for S100A1 binding, in words: 10 mmol/L Ca2+
Method: All peptides were synthesized using […] peptide synthesis and their purity was determined to be >95% by high pressure liquid chromatography and mass spectrometry (Biosynthesis Inc., Lewisville, TX or GenScript, Piscataway, NJ). Three peptides derived from human RyR1 sequence were synthesized: CaMBD2, residues 3614‐3640, […]; CaMBD1, residues 1975‐1999, […]; and CaMBD3, residues 4303‐4326, […]. As they are internal peptides the C‐terminus was […] and N‐terminus was acetylated to neutralize the charged ends. The peptides stock were made in D6‐DMSO and their concentration were determined by quantitative amino acid analysis (Biosynthesis Inc., Lewisville, TX) and/or determined using the extinction coefficient for the methyl ester of N‐acetyl tryptophan, ε280 = 5600 cm^−1M^−1.
Expression and purification (>95% by SDS‐PAGE) of recombinant human ^15N‐labeled S100A1 was performed as previous described (Melville et al. 2017b). The concentrations of S100A1 stock solutions were determined using the Bio‐Rad Protein Assay (Bio‐Rad Inc., Hercules, CA) using a known concentration of BSA as the standard. Concentrations are given in S100A1 monomer concentration except where indicated.
Heat changes during the titration of each CaMBD peptide into Ca^2+‐S100A1 were measured using a VP‐ITC titration microcalorimeter (MicroCal, Inc., Northhampton, MA) as done previously (Wilder et al. 2003). All solutions were degassed under vacuum and equilibrated at 37°C prior to titration. For each titration the sample cell (1.4 mL) contained 10 mmol/L TES, pH 7.2, 15 mmol/L NaCl, and 10 mmol/L CaCl2, 0.5 mmol/L TCEP, <5% D6‐DMSO (from peptide stocks or equivalent D6‐DMSO added to controls), and 0.04 mmol/L CaMBD peptide, while the reference cell contained water. Upon equilibration, 0.20–0.35 mmol/L S100A1 (dimer concentration) prepared in the same buffer without peptide but equivalent D6‐DMSO was injected using the default injection rate with a time interval between each injection to allow the sample to return to baseline. The resulting titration curves were corrected for protein‐free buffer control.
Images were collected and evaluated using the same settings and enhancing parameters so that all images could be directly compared. Line‐scan images were analyzed using LSM examiner (Carl Zeiss, Jena, DE). Calculation of AP‐induced Ca^2+ signals were conducted using Origin Pro 8 (OriginLab Corporation, Northampton, MA, USA) and SPSS for Windows ver. 24.0 (SPSS Inc., Chicago, IL). Summary data were reported as mean ± SD. Normal distribution of data was assessed using the Kolmogorov–Smirnov test. Unpaired two sample Student's t‐test was used to test for differences between the means of the indo 1‐resting values and peak AP‐induced Ca^2+ transients from two different samples. ITC results were background buffer subtracted and analyzed using the Origin for ITC software (MicroCal, Northampton, MA) and fit using two‐site fitting model (Freire et al. 1990). Differences were considered significant when P < 0.05.

CaM = details: ref Lau et al. 2014, cited from earlier work; for affinity sequence of CaM for the CaMBDs, in words: ITC data; for CaM binding, in words: isothermal calorimetry, rabbit RyR1 peptides
From the text: There is substantial evidence that CaM and S100A1 may bind to multiple sites within the RyR1. […] Given the affinity of S100A1 for the CaMBDs, it is likely that the observed RyR1 re ...

[2] = target: RyR1 CaMBD1 peptide (site 1) (Homo sapiens); assay: ITC
[3] = target: RyR1 CaMBD1 peptide (site 2) (Homo sapiens); assay: ITC
[4] = target: RyR1 CaMBD2 peptide (site 1) (Homo sapiens); assay: ITC
[5] = target: RyR1 CaMBD2 peptide (site 2) (Homo sapiens); assay: ITC
[6] = target: RyR1 CaMBD3 peptide (site 1) (Homo sapiens); assay: ITC
[7] = target: RyR1 CaMBD3 peptide (site 2) (Homo sapiens); assay: ITC
RyR1 = details: in vitro FRET; ref Rebbeck et al. 2016; cited from earlier work
From the text: In fast‐type skeletal muscle the intracellular concentration of S100A1 was reported to be ~3 μmol/L (Haimoto and Kato 1987; Zimmer et al. 1991), with total intracellular concentration of CaM being about 5 μmol/L (Robertson et al. 1981).

[8] = peptide-binding site 1, ITC VP-ITC, 10 mmol/L TES pH 7.2, 15 mmol/L NaCl, 10 mmol/L CaCl2, 0.5 mmol/L TCEP, <5% D6-DMSO, 0.04 mmol/L peptide in cell, 0.20-0.35 mmol/L S100A1 (dimer) injected
[9] = peptide-binding site 1, ITC, pH 7.2, 10 mmol/L CaCl2
[10] = peptide-binding site 2, ITC, pH 7.2, 10 mmol/L CaCl2

| Molecule | N (sites) [1, 8] | Kd [1, 9] | ΔG [1, 9] | ΔH [1, 9] | Kd [1, 10] | N (sites) [1, 10] | ΔG [1, 10] | ΔH [1, 10] | difference in affinity between the tight and weak peptide-binding site [1] | affinity sequence of CaM for the CaMBDs, in words (CaM) | CaM binding, in words (CaM) | also measured |
| --- | --- | --- | --- | --- | --- | --- | --- | --- | --- | --- | --- | --- |
| CSCC[C@H](NC(=O)[C@H](CCCNC(=N)N)NC(=O)[C@H](Cc1ccccc1)NC(=O)[C@H](CS)NC(=O)[C@H](C)NC(=O)[C@@H](NC(=O)[C@@H](NC(=O)[C@H](C)NC(=O)[C@H](CCCNC(=N)N)NC(=O)[C@H](CCCNC(=N)N)NC(=O)[C@H](CCCNC(=N)N)NC(=O)[C@H](CCC(N)=O)NC(=O)[C@H](CCCCN)NC(=O)[C@H](CO)NC(=O)[C@H](CC(C)C)NC(=O)[C@H](CC(C)C)NC(=O)[C@H](CCCCN)NC(=O)[C@H](Cc1c[nH]cn1)NC(=O)[C@H](Cc1c[nH]c2ccccc12)NC(=O)[C@@H](NC(=O)[C@H](C)NC(=O)[C@H](CCCCN)NC(=O)[C@H](CCCCN)NC(=O)[C@H](CO)NC(=O)[C@H](CCCCN)NC(C)=O)C(C)C)C(C)C)C(C)C)C(=O)N[C@H](C(=O)N1CCC[C@H]1C(N)=O)[C@@H](C)O [CaMBD2] (Ac-KSKKAVWHKLLSKQRRRAVVACFRMTP-NH2) | 0.78 ± 0.09 | 0.146 ± 0.0239 µM | -9.7 ± 0.1 kcal/mol | -11.4 ± 0.2 kcal/mol | 17 µM | 0.51 ± 0.15 | -6.8 ± 0.1 kcal/mol | -10.3 ± 3.0 kcal/mol | 114 fold | CaMBD2 > CaMBD3 > CaMBD1 | – | – |
| rCaMBD3: peptide from rabbit RyR1, residues 4295‐4325, Lau et al. 2014 (RLAAAAARALRGLSYRSLRRRVRRLRRLTAR; UniProt P11716 4295-4325, looked up, fragment) [reference compound] | – | – | – | – | – | – | – | – | – | – | CaM can bind | – |
| rCaMBD2: peptide from rabbit RyR1, residues 1975‐1999 (as printed), Lau et al. 2014 (SRYALLMRAFTMSAAETARRTREFR; UniProt P11716 1975-1999, looked up, fragment) [reference compound] | – | – | – | – | – | – | – | – | – | – | CaM can bind | – |
| rCaMBD1: peptide from rabbit RyR1, residues 3614‐3640 (as printed), Lau et al. 2014 (KSKKAVWHKLLSKQRRRAVVACFRMTP; UniProt P11716 3614-3640, looked up, fragment) [reference compound] | – | – | – | – | – | – | – | – | – | – | CaM can bind | – |
| CC[C@H](C)[C@H](NC(=O)[C@H](CC(C)C)NC(=O)[C@H](CC(C)C)NC(=O)CNC(=O)[C@H](Cc1ccc(O)cc1)NC(=O)[C@H](CCCNC(=N)N)NC(=O)[C@H](CO)NC(C)=O)C(=O)N[C@@H](CCCCN)C(=O)N[C@@H](C)C(=O)N[C@@H](Cc1ccccc1)C(=O)N[C@@H](CO)C(=O)N[C@@H](CCSC)C(=O)N[C@H](C(=O)N[C@@H](C)C(=O)N[C@@H](C)C(=O)N[C@@H](CCC(=O)O)C(=O)N[C@H](C(=O)N[C@@H](C)C(=O)N[C@@H](CCCNC(=N)N)C(=O)N[C@@H](CCCNC(=N)N)C(=O)N[C@H](C(=O)N[C@@H](CCCNC(=N)N)C(=O)N[C@@H](CCC(=O)O)C(=O)N[C@@H](Cc1ccccc1)C(=O)N[C@@H](CCCNC(=N)N)C(N)=O)[C@@H](C)O)[C@@H](C)O)[C@@H](C)O [CaMBD1] (Ac-SRYGLLIKAFSMTAAETARRTREFR-NH2) | 1.14 ± 0.10 | 1.3 ± 0.284 µM | -8.4 ± 0.1 kcal/mol | -4.5 ± 0.7 kcal/mol | 21 µM | 0.75 ± 0.07 | -6.7 ± 0.2 kcal/mol | -10.8 ± 0.4 kcal/mol | 16 fold | CaMBD2 > CaMBD3 > CaMBD1 | – | S100A1 binding, in words ([1]; ITC): binds with different affinities; also recorded: weakest affinity |
| CC(=O)N[C@@H](CCCNC(=N)N)C(=O)N[C@@H](C)C(=O)N[C@@H](CC(C)C)C(=O)N[C@@H](CCCNC(=N)N)C(=O)NCC(=O)N[C@@H](CC(C)C)C(=O)N[C@@H](CO)C(=O)N[C@@H](Cc1ccc(O)cc1)C(=O)N[C@@H](CCCNC(=N)N)C(=O)N[C@@H](CO)C(=O)N[C@@H](CC(C)C)C(=O)N[C@@H](CCCNC(=N)N)C(=O)N[C@@H](CCCNC(=N)N)C(=O)N[C@@H](CCCNC(=N)N)C(=O)N[C@H](C(=O)N[C@@H](CCCNC(=N)N)C(=O)N[C@@H](CCCNC(=N)N)C(=O)N[C@@H](CC(C)C)C(=O)N[C@@H](CCCNC(=N)N)C(=O)N[C@@H](CCCNC(=N)N)C(=O)N[C@@H](CC(C)C)C(=O)N[C@H](C(=O)N[C@@H](C)C(=O)N[C@@H](CCCNC(=N)N)C(N)=O)[C@@H](C)O)C(C)C [CaMBD3] (Ac-RALRGLSYRSLRRRVRRLRRLTAR-NH2) | 1.79 ± 0.08 | 0.0089 ± 0.011 µM | -11.9 ± 1.2 kcal/mol | -3.6 ± 0.7 kcal/mol | 6.7 µM | 1.27 ± 0.07 | -7.4 ± 0.2 kcal/mol | -6.1 ± 0.9 kcal/mol | 755 fold | CaMBD2 > CaMBD3 > CaMBD1 | – | S100A1 binding, in words ([1]; ITC): binds with different affinities; also recorded: tightest S100A1 binding |
| S100A1, P23297 (protein) MGSELETAMETLINVFHAHSGKEGDKYKLSKKELKELLQTELSGFLDAQKDVDAVDKVMKELDENGDGEVDFQEYVVLVAALTVACNNFFWENS | – | – | – | – | – | – | – | – | – | – | – | Kd [2]: 1.3 µM; Kd [3]: 21 µM; Kd [4]: 0.146 µM; Kd [5]: 17 µM; Kd [6]: 0.0089 µM; Kd [7]: 6.7 µM |
| S100A1: 21 kDa dimeric molecule characterized by its EF‐hand Ca^2+‐binding motifs (protein, UniProt P23297 1-94, looked up) Protein S100-A1: MGSELETAMETLINVFHAHSGKEGDKYKLSKKELKELLQTELSGFLDAQKDVDAVDKVMKELDENGDGEVDFQEYVVLVAALTVACNNFFWENS | – | – | – | – | – | – | – | – | – | – | – | S100A1 concentration required for RyR1 modulation, in words (RyR1): high unphysiological (micromolar) concentration |
